Reference: US20110288174A1, “Monohydrate of 4-(phenyl)ethyl]-amino}methyl)benzoic acid” (BAYER SCHERING PHARMA AKTIENGESELLSCHAFT, priority 2008, published 2011)

Test: Stability of the solid forms (thermodynamic and storage stability)
Format: physicochemical
Conditions: for thermodynamic stability of the crystal form: solid form of the compound of the formula (I)

| Structure (SMILES) | thermodynamic stability of the crystal form | storage stability (even after processing to aqueous suspensions) |
| --- | --- | --- |
| O=C(O)CCCCN(CCc1ccccc1OCc1ccc(CCc2ccccc2)cc1)Cc1ccc(C(=O)O)cc1 [modification IV, 4-({(4-Carboxybutyl)[2-(2-{[4-(2-phenylethyl)benzyl]oxy}phenyl)ethyl]amino}methyl)benzoic acid] | metastable | – |
| O=C(O)CCCCN(CCc1ccccc1OCc1ccc(CCc2ccccc2)cc1)Cc1ccc(C(=O)O)cc1 [monohydrate A, monohydrate of 4-({(4-carboxybutyl)[2-(2-{[4-(2-phenylethyl)benzyl]oxy}phenyl)ethyl]amino}methyl)benzoic acid in form A] | thermodynamically stable | storage-stable |
